Consider 13 molecules from PubChem BioAssay (NCI).

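Results reflect a 48-hour exposure of cells in 96-well plates to compound at five concentrations. GI50 marks 50% less growth. TGI: concentration producing complete growth inhibition.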

Holding throughout (test): inhibition of tumour cell growth, NCI panel, 48 h
In experiment [1] the test system is HT29 colon.
Experiment [2] relates to UACC-257 melanoma.
Experiment [3] concerns UACC-62 melanoma.
For experiment [4], the system named is MALME-3M melanoma.
Experiment [5] has as its system OVCAR-8 ovarian.
The subject of experiment [6] is NCI-H226 lung.
Experiment [7] concerns SK-MEL-2 melanoma.
The subject of experiment [8] is EKVX NSCLC.
Experiment [9] has as its system PC-3 prostate.

Regarding `CC(C)(C)C(=O)O[C@@H]1COC2C(O)COC21` (stereo partly drawn), the TGI in experiment [1], in [2], in experiment [3], in experiment [4] and in [5] was above 100 µM each time.

`CCC(C(=O)[O-])C(=O)[O-].CCC(C(=O)[O-])C(=O)[O-].N.N.NCCCCCCN.[Pt+4].[Pt+4]`: the GI50 in experiment [1] was 9.01 µM; in experiment [2] it was 6.14 µM; in experiment [6] it was 10 µM; in experiment [3], 7.5 µM; in experiment [7], 8.4 µM; in [4], 1 µM. For the same molecule, the GI50 was 11.5 µM in [5] and 20.7 µM in experiment [8]. For the same molecule, the TGI was determined as 19.4 µM in experiment [1]; 14 µM in [2]; 20.2 µM in experiment [6]; 14.6 µM in experiment [3]; 16.9 µM in experiment [7]; 1.9 µM in experiment [4]. Also, the results for the TGI in experiment [5] and in experiment [8] were 28.1 µM and 33.3 µM, respectively.

Regarding `CC1=C(c2cc(C(=O)Nc3cccc(C(F)(F)F)c3)ncn2)Sc2ccccc2N1`, the TGI in experiment [1], in [2], in experiment [6], in [3], in experiment [7] and in experiment [4] was above 100 µM in each case. Also, the TGI in experiment [5] and in experiment [8] was above 100 µM each time.

For `Cc1cc(C)c(S(=O)(=O)ONC(=O)OC(C)(C)C)c(C)c1`, the TGI in [1], in experiment [2], in experiment [3], in experiment [7], in experiment [4] and in experiment [5] was above 100 µM each time. The same molecule came in with a TGI in [8] above 100 µM.

For the molecule `O=C(NO)C(=O)Nc1ccc(Cl)cc1[N+](=O)[O-]`, the TGI in experiment [1], in [2], in experiment [6], in experiment [3], in [7] and in [4] was above 100 µM in each case. Further, the TGI in experiment [5] and in experiment [8] was above 100 µM throughout.

Consider `CC(=O)[O-].O=C([CH-]C(=O)c1ccccc1)c1ccccc1.O=C([CH-]C(=O)c1ccccc1)c1ccccc1.[Y+3]`, for which the GI50 in experiment [1] is 7.69 µM; in experiment [2] it was 9.8 µM; in experiment [6], 2.56 µM; in experiment [3] it was 3.8 µM; in experiment [7] it was 2.85 µM; in experiment [4], 8.02 µM. Moreover, the GI50 in [5] is 3.04 µM; in experiment [8], 3.59 µM. The TGI in [1] is 20.7 µM; in experiment [2], 31.7 µM; in experiment [6], 9.69 µM; in [3], 17.8 µM; in experiment [7], 9.69 µM; in experiment [4], 39.5 µM. Moreover, the TGI in experiment [5] stood at 20.6 µM; in [8] it was 17.8 µM.

Regarding `COC12CC(=O)C(C(C)=O)=C(O)C1(C)c1c(OC(C)=O)c(C)c(O)c(C(C)=O)c1O2` (stereo not drawn), the TGI in experiment [1] worked out at 78.7 µM; in experiment [2], 91.4 µM; in experiment [6] it was 65.7 µM; in experiment [3], 23.4 µM; in experiment [7], 53.6 µM; in [4], 60.2 µM. Also, the TGI in [5] was above 100 µM; in [8], 93.6 µM.

For `O=C([O-])c1ccc(C(=O)[O-])cc1.O=C([O-])c1ccc(C(=O)[O-])cc1.[Mo+2].[Mo+2]`, the GI50 in experiment [1], in experiment [2], in experiment [6], in [3], in [7] and in [4] was above 100 µM each time. Also, the GI50 in [5] and in experiment [8] was above 100 µM in each case. Also, the TGI in experiment [1], in [2], in experiment [6], in [3], in [7] and in [4] was above 100 µM in each case. Moreover, the TGI in experiment [5] and in experiment [8] was above 100 µM in each case.

On to `N#CC1(C=O)c2ccccc2C=CN1C(=O)c1ccccc1` (stereo not drawn), for which the TGI in [1], in experiment [2], in [6], in [3], in [7] and in experiment [4] was above 100 µM each time. Also, the TGI in experiment [5] and in [8] was above 100 µM each time.

`CCOC(=O)NC(=O)c1cn(CCN2CCN(C(=O)CCCCCCCCCCNc3ncnc4nc[nH]c34)CC2)c(=O)[nH]c1=O`: the TGI in [1], in experiment [2], in experiment [6], in [3], in [7] and in experiment [4] was above 100 µM each time. Further, the TGI in experiment [5] and in experiment [8] was above 100 µM each time.

In the case of `COc1ccc(/C(=N/NC(N)=O)C(c2ccc(OC)cc2)C2C(=O)Oc3ccccc32)cc1` (stereo not drawn), the TGI in experiment [1], in experiment [2], in experiment [6], in [3], in experiment [4] and in experiment [5] was above 100 µM in each case.

For the molecule `O=C(NCCCCCCCCNC(=O)c1cccc2ccccc12)c1cccc2ccccc12`, the TGI in experiment [9] was above 100 µM; in experiment [1], above 100 µM; in [2], above 100 µM; in experiment [6] it was 22.8 µM; in experiment [3], above 79.9 µM; in [7] it was above 100 µM. Further, the TGI in experiment [4] is above 100 µM; in experiment [5], 79.5 µM; in experiment [8], above 91.7 µM.

`O=C(NNC(=O)c1cc(/C=C/c2cccc([N+](=O)[O-])c2)[nH]c(=S)n1)Nc1ccc(Cl)cc1`: the TGI in experiment [1], in experiment [2], in experiment [6], in experiment [3], in experiment [7] and in experiment [4] was above 100 µM each time. The TGI in [5] and in experiment [8] was above 100 µM in each case.
